For test [1], the target named is T1, Acylglycerol kinase, mitochondrial (Homo sapiens) (UniProt Q53H12).
T1 sequence (whole entry): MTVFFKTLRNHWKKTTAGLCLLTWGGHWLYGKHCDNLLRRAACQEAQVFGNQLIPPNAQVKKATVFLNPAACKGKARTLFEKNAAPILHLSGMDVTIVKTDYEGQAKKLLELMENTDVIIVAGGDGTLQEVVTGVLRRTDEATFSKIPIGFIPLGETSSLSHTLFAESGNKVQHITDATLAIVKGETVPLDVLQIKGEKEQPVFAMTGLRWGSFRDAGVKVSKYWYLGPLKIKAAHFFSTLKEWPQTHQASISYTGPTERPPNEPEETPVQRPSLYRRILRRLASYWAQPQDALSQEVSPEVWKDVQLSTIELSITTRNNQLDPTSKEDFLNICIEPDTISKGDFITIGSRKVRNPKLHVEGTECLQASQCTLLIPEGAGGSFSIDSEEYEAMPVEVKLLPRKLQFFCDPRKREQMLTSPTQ
The experiment in a line: Inhibition of AGK in human PC3 cell lysates at 10 uM using desthiobiotin-tagged ATP probe AX9989 followed by trypsinization by LC/MS analysis. As to conditions: PC-3.

For test [2], the target named is T2, Interleukin-1 receptor-associated kinase 4 (Homo sapiens) (UniProt Q9NWZ3).
T2 sequence (whole entry): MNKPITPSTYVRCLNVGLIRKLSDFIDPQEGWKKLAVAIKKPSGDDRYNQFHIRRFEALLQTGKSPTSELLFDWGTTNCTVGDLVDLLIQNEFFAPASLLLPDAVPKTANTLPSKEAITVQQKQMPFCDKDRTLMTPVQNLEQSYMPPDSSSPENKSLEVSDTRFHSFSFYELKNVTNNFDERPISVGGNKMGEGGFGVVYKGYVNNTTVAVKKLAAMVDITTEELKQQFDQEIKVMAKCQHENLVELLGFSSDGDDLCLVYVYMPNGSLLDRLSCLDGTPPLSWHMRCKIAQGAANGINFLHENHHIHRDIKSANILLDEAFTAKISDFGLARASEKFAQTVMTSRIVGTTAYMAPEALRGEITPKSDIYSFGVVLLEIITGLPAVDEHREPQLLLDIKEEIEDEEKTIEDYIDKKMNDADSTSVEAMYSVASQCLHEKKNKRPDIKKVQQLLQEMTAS
The experiment in a line: Inhibition of IRAK4 in human PC3 cell lysates at 10 uM using desthiobiotin-tagged ATP probe AX9989 followed by trypsinization by LC/MS analysis. As to conditions: PC-3.

Test [3] deals with Serine/threonine-protein kinase ATR (Homo sapiens) (UniProt Q13535). The experiment in a line: Inhibition of ATR in human PC3 cell lysates at 10 uM using desthiobiotin-tagged ATP probe AX9989 followed by trypsinization by LC/MS analysis. As to conditions: PC-3.
Serine/threonine-protein kinase ATR (Homo sapiens), sequence (Q13535 whole entry, looked up): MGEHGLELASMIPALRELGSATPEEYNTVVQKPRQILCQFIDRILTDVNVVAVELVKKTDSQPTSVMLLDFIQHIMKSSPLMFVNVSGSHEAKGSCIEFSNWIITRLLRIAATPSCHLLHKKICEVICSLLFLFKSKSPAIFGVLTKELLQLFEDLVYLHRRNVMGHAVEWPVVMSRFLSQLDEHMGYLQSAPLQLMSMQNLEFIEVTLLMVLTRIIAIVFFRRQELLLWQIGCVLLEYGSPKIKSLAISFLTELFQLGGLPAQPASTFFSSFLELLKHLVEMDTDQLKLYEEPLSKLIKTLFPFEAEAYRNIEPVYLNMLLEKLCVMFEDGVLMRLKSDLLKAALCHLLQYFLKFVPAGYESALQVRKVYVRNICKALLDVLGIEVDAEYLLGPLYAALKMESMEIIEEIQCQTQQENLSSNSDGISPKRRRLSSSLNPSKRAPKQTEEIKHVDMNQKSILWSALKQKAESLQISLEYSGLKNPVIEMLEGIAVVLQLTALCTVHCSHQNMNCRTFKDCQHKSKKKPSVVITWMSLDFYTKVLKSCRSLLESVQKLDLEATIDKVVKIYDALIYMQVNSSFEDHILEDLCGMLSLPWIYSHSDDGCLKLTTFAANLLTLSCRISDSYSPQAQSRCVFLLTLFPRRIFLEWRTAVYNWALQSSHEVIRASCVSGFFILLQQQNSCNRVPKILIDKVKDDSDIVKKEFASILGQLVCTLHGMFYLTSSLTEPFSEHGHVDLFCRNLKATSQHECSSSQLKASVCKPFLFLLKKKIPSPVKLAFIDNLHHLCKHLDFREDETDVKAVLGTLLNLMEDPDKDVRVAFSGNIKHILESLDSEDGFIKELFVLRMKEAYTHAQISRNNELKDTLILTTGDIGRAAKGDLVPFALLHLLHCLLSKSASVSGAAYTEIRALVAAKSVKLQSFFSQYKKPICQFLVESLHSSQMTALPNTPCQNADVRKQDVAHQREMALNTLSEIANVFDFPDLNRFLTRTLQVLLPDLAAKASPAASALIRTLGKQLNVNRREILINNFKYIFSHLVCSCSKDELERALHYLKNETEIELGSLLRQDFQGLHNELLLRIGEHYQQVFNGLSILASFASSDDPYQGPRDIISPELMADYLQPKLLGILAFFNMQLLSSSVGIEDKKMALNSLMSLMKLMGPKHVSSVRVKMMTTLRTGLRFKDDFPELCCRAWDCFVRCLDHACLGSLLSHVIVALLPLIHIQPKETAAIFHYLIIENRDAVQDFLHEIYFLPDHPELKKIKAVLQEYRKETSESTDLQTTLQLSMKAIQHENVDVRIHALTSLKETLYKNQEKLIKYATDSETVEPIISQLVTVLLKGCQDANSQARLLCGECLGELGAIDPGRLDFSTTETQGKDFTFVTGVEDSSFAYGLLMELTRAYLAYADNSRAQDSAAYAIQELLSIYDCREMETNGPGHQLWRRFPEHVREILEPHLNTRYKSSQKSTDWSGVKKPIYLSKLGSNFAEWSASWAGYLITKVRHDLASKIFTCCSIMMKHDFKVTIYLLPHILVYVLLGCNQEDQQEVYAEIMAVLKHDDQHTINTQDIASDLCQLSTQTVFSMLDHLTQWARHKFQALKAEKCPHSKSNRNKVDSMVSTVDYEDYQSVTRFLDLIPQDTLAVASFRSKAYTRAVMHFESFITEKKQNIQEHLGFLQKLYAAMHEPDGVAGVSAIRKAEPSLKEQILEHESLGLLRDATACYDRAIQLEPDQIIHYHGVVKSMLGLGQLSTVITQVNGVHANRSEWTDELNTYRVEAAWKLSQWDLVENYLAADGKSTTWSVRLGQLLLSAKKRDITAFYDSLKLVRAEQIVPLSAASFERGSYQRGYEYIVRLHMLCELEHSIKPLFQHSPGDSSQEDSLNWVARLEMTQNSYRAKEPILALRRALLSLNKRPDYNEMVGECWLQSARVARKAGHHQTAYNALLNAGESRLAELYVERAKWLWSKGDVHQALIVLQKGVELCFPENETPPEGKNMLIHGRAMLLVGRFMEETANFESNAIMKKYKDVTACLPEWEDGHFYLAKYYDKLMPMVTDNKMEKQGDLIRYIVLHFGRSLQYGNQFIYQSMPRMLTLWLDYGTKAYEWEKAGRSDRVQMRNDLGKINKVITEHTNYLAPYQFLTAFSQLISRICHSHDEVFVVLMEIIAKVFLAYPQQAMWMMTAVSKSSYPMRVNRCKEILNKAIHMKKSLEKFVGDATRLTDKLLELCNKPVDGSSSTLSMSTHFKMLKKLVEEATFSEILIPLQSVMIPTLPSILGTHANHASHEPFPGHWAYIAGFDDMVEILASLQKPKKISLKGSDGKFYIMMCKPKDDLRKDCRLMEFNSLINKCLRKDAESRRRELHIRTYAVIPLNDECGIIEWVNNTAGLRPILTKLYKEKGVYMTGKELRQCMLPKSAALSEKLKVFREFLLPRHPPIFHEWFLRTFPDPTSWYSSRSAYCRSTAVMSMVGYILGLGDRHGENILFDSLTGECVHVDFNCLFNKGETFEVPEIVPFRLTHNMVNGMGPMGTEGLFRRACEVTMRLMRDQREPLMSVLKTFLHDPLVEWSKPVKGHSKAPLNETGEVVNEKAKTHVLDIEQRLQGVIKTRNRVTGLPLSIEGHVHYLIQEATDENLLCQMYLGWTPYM
For test [4], the target named is Mitogen-activated protein kinase 8 (Homo sapiens, UniProt P45983). The experiment in a line: Inhibition of human recombinant histidine-tagged full-length JNK1 expressed in insect cells activated by GST-tagged MAP2K7 using ATF2 as substrate after 1 hr by luminescence plate reader analysis.
Mitogen-activated protein kinase 8, sequence (P45983 whole entry): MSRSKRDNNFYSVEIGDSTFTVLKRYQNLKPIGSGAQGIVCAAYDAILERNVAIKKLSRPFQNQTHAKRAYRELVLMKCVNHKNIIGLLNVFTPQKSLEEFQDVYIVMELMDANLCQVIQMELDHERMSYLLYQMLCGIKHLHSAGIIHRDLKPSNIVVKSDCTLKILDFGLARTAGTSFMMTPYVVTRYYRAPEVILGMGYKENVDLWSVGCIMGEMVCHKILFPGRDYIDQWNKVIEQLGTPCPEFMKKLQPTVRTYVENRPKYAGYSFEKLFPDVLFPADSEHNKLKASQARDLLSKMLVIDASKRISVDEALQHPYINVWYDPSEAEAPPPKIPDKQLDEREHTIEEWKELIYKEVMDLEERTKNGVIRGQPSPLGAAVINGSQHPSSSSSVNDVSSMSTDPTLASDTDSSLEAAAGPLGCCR
Test [5] concerns the target Mitogen-activated protein kinase 11 (Homo sapiens) (UniProt Q15759). The experiment in a line: Inhibition of p38beta in human PC3 cell lysates at 10 uM using desthiobiotin-tagged ATP probe AX9989 followed by trypsinization by LC/MS analysis. As to conditions: PC-3.
The target of test [6] is T3, Mitogen-activated protein kinase kinase kinase 3 (Homo sapiens) (UniProt Q99759).
T3 sequence (whole entry): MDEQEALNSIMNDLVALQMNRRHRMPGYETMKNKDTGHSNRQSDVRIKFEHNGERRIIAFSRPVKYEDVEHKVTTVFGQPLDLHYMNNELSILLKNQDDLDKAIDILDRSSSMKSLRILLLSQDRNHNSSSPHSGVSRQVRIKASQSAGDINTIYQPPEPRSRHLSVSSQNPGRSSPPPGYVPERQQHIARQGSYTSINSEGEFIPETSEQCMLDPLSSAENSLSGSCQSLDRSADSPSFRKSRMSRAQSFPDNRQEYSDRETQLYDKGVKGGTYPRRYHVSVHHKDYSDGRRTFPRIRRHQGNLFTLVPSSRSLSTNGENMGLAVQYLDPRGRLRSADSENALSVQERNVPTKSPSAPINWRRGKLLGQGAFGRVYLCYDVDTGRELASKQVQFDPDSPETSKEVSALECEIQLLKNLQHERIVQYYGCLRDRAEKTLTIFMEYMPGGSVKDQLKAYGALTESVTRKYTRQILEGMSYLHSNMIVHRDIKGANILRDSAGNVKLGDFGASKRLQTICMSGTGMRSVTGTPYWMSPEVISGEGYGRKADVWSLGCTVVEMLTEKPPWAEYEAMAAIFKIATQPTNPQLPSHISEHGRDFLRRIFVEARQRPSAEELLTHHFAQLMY
Put plainly: Inhibition of MAP3K3 in human PC3 cell lysates at 10 uM using desthiobiotin-tagged ATP probe AX9989 followed by trypsinization by LC/MS analysis. As to conditions: PC-3.

Test [7] addresses T4, Serine/threonine-protein kinase 4 (Homo sapiens) (UniProt Q13043).
T4 sequence (whole entry): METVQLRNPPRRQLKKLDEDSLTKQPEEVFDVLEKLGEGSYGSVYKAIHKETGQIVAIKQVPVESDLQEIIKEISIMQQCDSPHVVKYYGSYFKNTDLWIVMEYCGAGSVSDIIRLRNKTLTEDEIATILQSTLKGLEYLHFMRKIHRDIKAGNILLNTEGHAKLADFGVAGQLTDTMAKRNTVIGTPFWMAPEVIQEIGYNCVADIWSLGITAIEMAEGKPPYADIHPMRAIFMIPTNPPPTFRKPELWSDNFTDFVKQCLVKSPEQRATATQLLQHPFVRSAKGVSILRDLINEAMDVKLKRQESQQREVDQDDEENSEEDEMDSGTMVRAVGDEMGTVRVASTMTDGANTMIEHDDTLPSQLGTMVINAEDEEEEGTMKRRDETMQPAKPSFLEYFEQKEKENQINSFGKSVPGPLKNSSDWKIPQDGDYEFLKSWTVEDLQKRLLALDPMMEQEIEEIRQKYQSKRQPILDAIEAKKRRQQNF
Put plainly: Inhibition of MST1 in human PC3 cell lysates at 10 uM using desthiobiotin-tagged ATP probe AX9989 followed by trypsinization by LC/MS analysis. Particulars: PC-3.

Test [8] has as its target Dual specificity protein kinase CLK2 (Homo sapiens) (UniProt P49760). Put plainly: Inhibition of CLK2 in human PC3 cell lysates at 10 uM using desthiobiotin-tagged ATP probe AX9989 followed by trypsinization by LC/MS analysis. Particulars: PC-3.
Test [9] has as its target Serine/threonine-protein kinase 38-like (Homo sapiens) (UniProt Q9Y2H1). Put plainly: Inhibition of NDR2 in human PC3 cell lysates at 10 uM using desthiobiotin-tagged ATP probe AX9989 followed by trypsinization by LC/MS analysis. Particulars: PC-3.
For test [10], the target named is Protein kinase C beta type (Homo sapiens) (UniProt P05771). The experiment in a line: Inhibition of PKCbeta in human PC3 cell lysates at 10 uM using desthiobiotin-tagged ATP probe AX9989 followed by trypsinization by LC/MS analysis. As to conditions: PC-3.
Protein kinase C beta type (Homo sapiens), sequence (P05771 2-671 limits assumed): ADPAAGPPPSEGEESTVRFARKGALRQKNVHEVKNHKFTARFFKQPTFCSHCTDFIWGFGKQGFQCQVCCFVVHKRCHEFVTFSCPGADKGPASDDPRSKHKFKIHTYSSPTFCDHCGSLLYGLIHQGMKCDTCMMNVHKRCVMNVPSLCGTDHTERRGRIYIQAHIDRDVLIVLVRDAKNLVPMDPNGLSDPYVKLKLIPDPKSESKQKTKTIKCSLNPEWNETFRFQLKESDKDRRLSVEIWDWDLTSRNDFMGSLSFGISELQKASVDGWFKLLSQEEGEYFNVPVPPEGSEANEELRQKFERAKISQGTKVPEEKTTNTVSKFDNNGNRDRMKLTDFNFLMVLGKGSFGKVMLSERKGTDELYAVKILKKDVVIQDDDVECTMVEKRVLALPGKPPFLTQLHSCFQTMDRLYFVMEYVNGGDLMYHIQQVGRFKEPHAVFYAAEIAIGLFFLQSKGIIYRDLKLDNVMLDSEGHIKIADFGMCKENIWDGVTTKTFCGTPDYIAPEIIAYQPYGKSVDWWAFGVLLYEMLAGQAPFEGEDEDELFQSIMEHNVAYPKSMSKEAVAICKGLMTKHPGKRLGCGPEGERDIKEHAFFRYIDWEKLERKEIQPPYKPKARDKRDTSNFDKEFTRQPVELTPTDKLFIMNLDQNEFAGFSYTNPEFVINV

Dual specificity protein kinase CLK2 (Homo sapiens), sequence (P49760 whole entry, looked up): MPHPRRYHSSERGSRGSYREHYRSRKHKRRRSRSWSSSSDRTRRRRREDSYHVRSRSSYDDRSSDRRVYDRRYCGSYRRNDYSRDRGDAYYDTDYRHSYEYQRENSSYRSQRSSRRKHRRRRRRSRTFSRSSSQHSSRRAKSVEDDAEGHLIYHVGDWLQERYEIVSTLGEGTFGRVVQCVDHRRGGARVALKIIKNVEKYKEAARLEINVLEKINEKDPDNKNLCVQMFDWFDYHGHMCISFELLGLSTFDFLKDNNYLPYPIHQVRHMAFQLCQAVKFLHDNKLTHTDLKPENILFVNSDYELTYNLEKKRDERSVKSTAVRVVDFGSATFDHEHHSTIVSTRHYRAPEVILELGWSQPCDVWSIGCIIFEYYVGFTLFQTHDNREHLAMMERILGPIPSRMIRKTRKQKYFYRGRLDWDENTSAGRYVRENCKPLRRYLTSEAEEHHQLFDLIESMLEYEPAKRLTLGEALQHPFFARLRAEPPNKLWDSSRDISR
Mitogen-activated protein kinase 11 (Homo sapiens), sequence (Q15759 whole entry): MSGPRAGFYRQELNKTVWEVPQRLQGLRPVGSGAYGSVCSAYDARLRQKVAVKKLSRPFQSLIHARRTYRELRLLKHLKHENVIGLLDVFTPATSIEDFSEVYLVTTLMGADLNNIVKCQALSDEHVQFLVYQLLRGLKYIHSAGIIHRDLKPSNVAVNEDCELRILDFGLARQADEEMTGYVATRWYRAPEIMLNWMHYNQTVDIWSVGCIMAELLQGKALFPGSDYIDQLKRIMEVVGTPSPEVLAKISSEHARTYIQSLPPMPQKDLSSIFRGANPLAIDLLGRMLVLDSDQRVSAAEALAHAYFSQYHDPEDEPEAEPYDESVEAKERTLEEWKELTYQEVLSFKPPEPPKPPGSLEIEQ
Serine/threonine-protein kinase 38-like (Homo sapiens), sequence (Q9Y2H1 2-464 limits assumed): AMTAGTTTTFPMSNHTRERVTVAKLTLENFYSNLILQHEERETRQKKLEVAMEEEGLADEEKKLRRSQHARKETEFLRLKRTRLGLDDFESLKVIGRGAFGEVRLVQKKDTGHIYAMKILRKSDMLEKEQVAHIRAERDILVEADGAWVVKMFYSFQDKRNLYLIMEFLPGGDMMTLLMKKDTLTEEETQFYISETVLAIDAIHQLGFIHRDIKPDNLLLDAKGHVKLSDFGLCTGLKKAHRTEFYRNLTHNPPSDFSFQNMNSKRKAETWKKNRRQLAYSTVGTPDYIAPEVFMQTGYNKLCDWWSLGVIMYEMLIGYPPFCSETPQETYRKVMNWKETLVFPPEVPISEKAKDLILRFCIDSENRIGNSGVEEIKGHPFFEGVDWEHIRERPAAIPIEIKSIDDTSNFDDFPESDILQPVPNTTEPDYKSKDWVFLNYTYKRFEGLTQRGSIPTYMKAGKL

Regarding `O=C(NC1(c2ccccc2)CCC1)c1ccc2nc(N[C@H]3CC[C@H](O)CC3)c3nccn3c2c1`, the inhibition in test [1], in test [2], in [3], in test [5], in test [6] and in test [7] was less than 35% throughout. Besides, the inhibition in test [8], in [9] and in test [10] was less than 35% each time. Also, in test [4], the IC50 is 77 nM.

For orientation: inhibition means the share of the control response that was lost under treatment. Read a low inhibition as a weak effect. For orientation: IC50 means the concentration that inhibits the measured activity by half.

The record behind these values is ChEMBL document CHEMBL2417377, “Hit-to-lead optimization and kinase selectivity of imidazo[1,2-a]quinoxalin-4-amine derived JNK1 inhibitors” (Bioorg Med Chem Lett, 2013).
